The values below come from ChEMBL document CHEMBL2449286, “Structure-activity data for a series of P-glycoprotein inhibitors (Supplementary Data to CHEMBL1142990)”.

The target in the assay is ATP-dependent translocase ABCB1 (Homo sapiens, UniProt P08183).
Sequence of ATP-dependent translocase ABCB1 (P08183 whole entry): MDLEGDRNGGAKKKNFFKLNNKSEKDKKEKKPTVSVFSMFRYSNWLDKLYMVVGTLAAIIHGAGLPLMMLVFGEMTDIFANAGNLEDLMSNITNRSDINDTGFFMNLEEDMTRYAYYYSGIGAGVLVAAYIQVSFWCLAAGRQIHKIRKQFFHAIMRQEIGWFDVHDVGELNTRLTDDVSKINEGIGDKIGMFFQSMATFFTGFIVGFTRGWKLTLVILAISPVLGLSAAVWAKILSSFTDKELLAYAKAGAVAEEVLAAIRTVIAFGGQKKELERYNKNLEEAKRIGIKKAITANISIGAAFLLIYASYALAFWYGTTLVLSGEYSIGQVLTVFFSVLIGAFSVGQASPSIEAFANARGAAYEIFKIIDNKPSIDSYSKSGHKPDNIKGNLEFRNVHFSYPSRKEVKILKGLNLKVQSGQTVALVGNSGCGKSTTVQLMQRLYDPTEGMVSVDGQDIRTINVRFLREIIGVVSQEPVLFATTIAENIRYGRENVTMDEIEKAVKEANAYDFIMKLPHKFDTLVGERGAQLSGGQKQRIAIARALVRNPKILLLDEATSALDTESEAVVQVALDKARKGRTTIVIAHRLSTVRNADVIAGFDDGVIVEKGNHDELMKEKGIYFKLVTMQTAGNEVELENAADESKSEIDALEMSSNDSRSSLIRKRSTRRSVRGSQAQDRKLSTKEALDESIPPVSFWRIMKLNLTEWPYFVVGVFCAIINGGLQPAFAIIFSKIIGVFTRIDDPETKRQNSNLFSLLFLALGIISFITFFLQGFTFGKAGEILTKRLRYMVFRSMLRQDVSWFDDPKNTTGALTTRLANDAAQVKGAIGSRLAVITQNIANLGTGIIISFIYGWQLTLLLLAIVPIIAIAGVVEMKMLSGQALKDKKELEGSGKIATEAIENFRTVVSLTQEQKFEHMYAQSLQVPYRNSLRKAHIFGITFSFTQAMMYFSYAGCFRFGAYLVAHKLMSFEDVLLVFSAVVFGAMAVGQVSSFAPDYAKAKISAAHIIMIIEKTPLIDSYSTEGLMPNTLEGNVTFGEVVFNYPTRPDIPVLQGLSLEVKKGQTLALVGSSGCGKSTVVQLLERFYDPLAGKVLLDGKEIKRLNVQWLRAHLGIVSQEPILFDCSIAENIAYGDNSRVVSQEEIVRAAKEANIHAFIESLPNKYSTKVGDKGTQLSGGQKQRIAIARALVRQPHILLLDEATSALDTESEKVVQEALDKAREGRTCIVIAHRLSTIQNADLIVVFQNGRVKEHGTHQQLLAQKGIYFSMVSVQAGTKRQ
For orientation: EC50 means the concentration that produces a half-maximal response. Low readings indicate higher potency in that assay, high ones lower potency in that assay. With `Cc1cccc(N2CCN(C[C@@H](O)COc3cccc(C(=O)CCc4ccccc4)c3)CC2)c1C`, the EC50 is 0.138 µM. In the case of `CCCNC[C@@H](O)COc1ccc(OCc2ccccc2)cc1C(=O)CCc1ccccc1`, the EC50 is 0.11 µM. Consider `O=C(CCc1ccccc1)c1cc(OCc2ccccc2)ccc1OC[C@H](O)CN1CCCCC1`, for which a half-maximal response (EC50) required 0.174 µM. Against the preceding compound, the EC50 is about 1.6-fold higher. In the case of `O=C(CCc1ccccc1)c1cc(O)ccc1OC[C@H](O)CN1CCCCC1` it was 1.74 µM; in that of `O=C(CCc1ccccc1)c1ccccc1OC[C@H](O)CNCCC(c1ccccc1)c1ccccc1`, 0.724 µM; in that of `O=C(CCc1ccccc1)c1ccccc1OC[C@H](O)CNc1ccccc1`, 6.46 µM.

The compound `O=C(CCc1ccccc1)c1ccccc1OC[C@H](O)CNC1CCCCC1` showed an EC50 of 0.339 µM. `CC(C)N(C[C@@H](O)COc1ccc(O)cc1C(=O)CCc1ccccc1)C(C)C`: it took 1.05 µM to reach a half-maximal effect (EC50).

Take `CC(C)N(C[C@@H](O)COc1ccc(OCc2ccccc2)cc1C(=O)CCc1ccccc1)C(C)C`: the EC50 is 0.0813 µM.

Take `O=C(CCc1ccccc1)c1cc(OCc2ccccc2)ccc1OC[C@H](O)CN1CCN(Cc2ccccc2)CC1`: the EC50 was 0.115 µM. Take `O=C(CCc1ccccc1)c1cc(O)ccc1OC[C@H](O)CN1CCN(Cc2ccccc2)CC1`: the EC50 is 0.525 µM. In the case of `CC(C)O[C@H](CCc1ccccc1)c1ccccc1OC[C@H](O)CN1CCCCC1`, the EC50 is 0.457 µM. The compound `CC(C)(C)O[C@H](CCc1ccccc1)c1ccccc1OC[C@H](O)CN1CCCCC1` had an EC50 of 0.398 µM. The EC50 values of the last two compounds are within 1.5-fold of each other. Take `O=C(c1ccccc1)c1ccccc1OC[C@H](O)CN1CCC(O)(c2ccccc2)CC1`: a half-maximal effect (EC50) was put at 0.309 µM. This EC50 and that of the compound before are within 1.5-fold of each other. Regarding `O=C(c1ccccc1)c1ccccc1OC[C@H](O)CN1CCN(c2ccc(F)cc2)CC1`, a half-maximal response (EC50) required 0.148 µM. In the case of `CC(=O)c1ccccc1OC[C@H](O)CN1CCC(Cc2ccccc2)CC1` it was 0.355 µM; in that of `CC(=O)c1ccccc1OC[C@H](O)CN1CCC(O)(c2ccccc2)CC1`, 3.16 µM. With `Cc1ccccc1N1CCN(C[C@@H](O)COc2ccccc2C(=O)CCc2ccc(Cl)cc2)CC1` the figure was 0.0191 µM; with `Cc1ccc(CCC(=O)c2ccccc2OC[C@H](O)CN2CCN(c3ccccc3C)CC2)cc1`, 0.0182 µM; with `COc1ccc(CCC(=O)c2ccccc2OC[C@H](O)CN2CCN(c3ccccc3C)CC2)cc1`, 0.0141 µM. In the case of `Cc1ccccc1N1CCN(C[C@@H](O)COc2ccccc2C(=O)CCc2ccc(Cl)c(Cl)c2)CC1` it was 0.038 µM; in that of `CC(=O)O[C@@H](COc1ccccc1C(=O)CCc1ccccc1)CN1CCCCC1`, 0.339 µM; in that of `COC(=O)c1ccc(NC[C@@H](O)COc2ccccc2C(=O)CCc2ccccc2)cc1`, 1.55 µM. Take `Cc1ccccc1N1CCN(C[C@@H](O)COc2ccc(Cl)cc2C(=O)CCc2ccccc2)CC1`: the EC50 was 0.0589 µM.

Consider `COc1ccc(OC[C@H](O)CN2CCN(c3ccccc3C)CC2)c(C(=O)CCc2ccccc2)c1`, for which the EC50 was 0.178 µM.

As to `Cc1ccc(OC[C@H](O)CN2CCN(c3ccccc3C)CC2)c(C(=O)CCc2ccccc2)c1`, a half-maximal response (EC50) required 0.0257 µM. Compared with the last compound, the EC50 is about 6.9-fold lower. Regarding `O=C(CCc1ccccc1)c1ccccc1OC[C@H](O)CNc1ccc(C(F)(F)F)cc1`, a half-maximal effect (EC50) was put at 8.51 µM. This EC50 lies about 330-fold higher than the previous one. Take `O=C(CCc1ccccc1)c1ccccc1OC[C@H](O)CNc1ccc([N+](=O)[O-])cc1`: the EC50 was 2.57 µM.

As for `CCC(=O)N(Cc1ccccc1)C[C@@H](O)COc1ccccc1C(=O)CCc1ccccc1`, the EC50 is 1.66 µM.

`CCCN(C[C@@H](O)COc1ccccc1C(=O)CCc1ccccc1)C(=O)c1ccccc1` gave a concentration giving a half-maximal response (EC50) of 1.7 µM. This EC50 and that of the compound before are within 1.5-fold of each other.

`O=C(CCc1cccc2ccccc12)c1ccccc1OC[C@H](O)CN1CCOCC1` had an EC50 of 0.724 µM. On to `CC(C)N(C[C@@H](O)COc1ccccc1C(=O)CCc1cccc2ccccc12)C(C)C`, for which a half-maximal response (EC50) required 0.468 µM. This EC50 is about 1.5-fold lower than that of the compound before. For the compound `CCC(=O)c1ccccc1OC[C@H](O)CN1CCC(O)(c2ccccc2)CC1`, the EC50 is 0.302 µM. Against the preceding compound, the EC50 is about 1.5-fold lower. Consider `O=C(CCc1cccc2ccccc12)c1ccccc1OC[C@H](O)CN1CCC(O)(c2ccccc2)CC1`, for which it took 0.0759 µM to reach a half-maximal effect (EC50). Regarding `CC(=O)c1cccc(OC[C@H](O)CN2CCOCC2)c1`, the EC50 was 129 µM. Regarding `CC(=O)c1cccc(OC[C@H](O)CN2CCCCC2)c1`, a half-maximal response (EC50) required 9.12 µM. `CC(=O)c1cccc(OC[C@H](O)CN2CCN(c3ccc(F)cc3)CC2)c1`: the response was half-maximal at 10 µM (EC50).

`O=C(CCc1ccccc1)c1ccccc1OC[C@H](O)CN1CCN(C(=O)c2ccccc2)CC1` gave an EC50 of 0.129 µM. The compound `CC(=O)c1ccc(OC[C@H](O)CN2CCCCC2)cc1` gave an EC50 of 49 µM. `CC(=O)c1ccc(OC[C@H](O)CN2CCN(c3ccc(F)cc3)CC2)cc1` had an EC50 of 11.7 µM. Against the preceding compound, the EC50 is about 4.2-fold lower. On to `CC(=O)c1ccc(OC[C@H](O)CN2CCOCC2)cc1`, for which the midpoint of the response, the EC50, lay at 302 µM. `CN(CCN(C)S(=O)(=O)c1cccc2c(N(C)C)cccc12)C[C@@H](O)COc1ccccc1C(=O)c1ccccc1` showed an EC50 of 1.82 µM. With `CCCNC[C@@H](O)COc1ccc(C)cc1C(=O)c1ccccc1` the figure was 1.2 µM. In the case of `CC(C)[C@H](NC[C@@H](O)COc1ccccc1C(=O)CCc1ccccc1)c1ccccc1` it was 0.209 µM; in that of `O=C(CCc1ccccc1)c1ccccc1OC[C@H](O)CN[C@@H](c1ccccc1)C1CCCCC1`, 0.145 µM; in that of `Cc1ccccc1N1CCN(C[C@@H](O)COc2cc(Cl)c(Cl)cc2C(=O)CCc2ccccc2)CC1`, 0.017 µM.

Regarding `O=C1CCc2cccc(OC[C@H](O)CN3CCCCC3)c21`, the EC50 was 9.77 µM.

`CC(C)(C)[C@@H](NC[C@@H](O)COc1ccccc1C(=O)CCc1ccccc1)c1ccccc1`: the EC50 is 0.295 µM. Against the preceding compound, the EC50 is about 33-fold lower.

The compound `O=C1CCc2c(OC[C@H](O)CN3CCCCC3)cccc21` showed an EC50 of 11.2 µM. `O=C1c2c(cccc2OC[C@H](O)CN2CCCCC2)C[C@@H]1Cc1ccccc1` showed an EC50 of 0.214 µM. This EC50 is about 52-fold lower than that of the compound before. In turn, `O=C1c2cccc(OC[C@H](O)CN3CCCCC3)c2C[C@H]1Cc1ccccc1` showed an EC50 of 0.141 µM. Compound `Cc1cccc(N2CCN(C[C@@H](O)COc3cccc4c3C(=O)[C@@H](Cc3ccccc3)C4)CC2)c1C` showed an EC50 of 0.166 µM.

In turn, `COc1ccc(N2CCN(C[C@@H](O)COc3cccc4c3C(=O)[C@@H](Cc3ccccc3)C4)CC2)cc1` gave a 50% effective concentration (EC50) of 0.389 µM. As to `O=C1c2c(cccc2OC[C@H](O)CN2CCOCC2)C[C@@H]1Cc1ccccc1`, the midpoint of the response, the EC50, lay at 0.295 µM. This EC50 and that of the compound before are within 1.5-fold of each other.

`O=C1C[C@H](CN2CCCCC2)Oc2ccccc21` had an EC50 of 178 µM. With `O=C1C[C@H](CN2CCN(c3ccc(F)cc3)CC2)Oc2ccccc21`, the EC50 was 17.8 µM.

For the compound `Cc1cccc(N2CCN(C[C@H]3CC(=O)c4ccccc4O3)CC2)c1C`, a half-maximal effect (EC50) was put at 2.04 µM. This EC50 is about 8.7-fold lower than that of the compound before.

`O=C1C[C@H](CN2CCN(Cc3ccccc3)CC2)Oc2ccccc21` showed an EC50 of 8.91 µM. Regarding `O=C1C[C@H](CN2CCOCC2)Oc2ccccc21`, the EC50 was 1260 µM. Regarding `CC(=O)c1ccc(OC[C@H](O)CN2CCN(c3ccccc3C)CC2)cc1`, a half-maximal response (EC50) required 1.55 µM. This EC50 is about 810-fold lower than that of the compound before.

Turning to `CC(=O)c1cccc(OC[C@H](O)CN2CCN(c3cccc(C)c3C)CC2)c1`, a half-maximal response (EC50) required 0.38 µM. `O=C([C@@H]1Oc2ccccc2[C@@H]1CCc1ccccc1)N1CCCCC1` gave an EC50 of 6.61 µM. In the case of `C[C@H]1c2ccccc2O[C@H]1C(=O)N1CCCCC1` it was 105 µM.

`c1ccc(CC[C@H]2c3ccccc3O[C@H]2CN2CCCCC2)cc1` showed an EC50 of 1.62 µM. In the case of `C[C@H]1c2ccccc2O[C@H]1CN1CCCCC1` it was 49 µM; in that of `CC(=O)c1cccc(OC[C@H](O)CN2CCN(c3ccccc3C)CC2)c1`, 0.537 µM; in that of `Cc1cccc(N2CCN(C[C@@H](O)COc3ccc(C(=O)CCc4ccccc4)cc3)CC2)c1C`, 0.229 µM. `COc1ccc(C(=O)CCc2ccccc2)c(OC[C@H](O)CN2CCN(c3ccccc3C)CC2)c1` gave an EC50 of 0.0309 µM.

In the case of `COc1ccc(C(=O)CCc2ccccc2)c(OC[C@H](O)CN2CCCCC2)c1`, it took 0.295 µM to reach a half-maximal effect (EC50).

`Cc1ccccc1N1CCN(C[C@@H](O)COc2ccccc2C(=O)CCc2ccc(N(C)C)cc2)CC1` showed an EC50 of 0.0129 µM.

In the case of `COc1ccc(OC[C@H](O)CN2CCN(c3ccccc3C)CC2)c(C(C)=O)c1`, the EC50 was 0.851 µM.

As to `COc1ccc(C(=O)CCc2ccc(N(C)C)cc2)c(OC[C@H](O)CN2CCN(c3ccccc3C)CC2)c1`, the EC50 is 0.0398 µM. The compound `CC(=O)c1ccc(OC[C@H](O)CNCCC(c2ccccc2)c2ccccc2)cc1` had an EC50 of 0.178 µM.

On to `Cc1ccccc1N1CCN(C[C@@H](O)COc2cccc(C(=O)CCc3ccccc3)c2)CC1`, for which the EC50 was 0.0741 µM. With `O=C(CCc1ccccc1)c1cccc(OC[C@H](O)CNCCC(c2ccccc2)c2ccccc2)c1` the figure was 0.191 µM; with `O=C(CCc1ccccc1)c1cccc(OC[C@H](O)CN2CCOCC2)c1`, 3.47 µM. Turning to `O=C(CCc1ccccc1)c1ccc(OC[C@H](O)CNCCC(c2ccccc2)c2ccccc2)cc1`, the EC50 is 0.501 µM.

As to `O=C(CCc1ccccc1)c1cc(OCc2ccccc2)ccc1OC[C@H](O)CN1CCC(O)(c2ccccc2)CC1`, the EC50 was 0.0851 µM.

`CC(C)(C)OC(=O)N1CCN(C[C@@H](O)COc2ccccc2C(=O)c2ccccc2)CC1`: the EC50 was 0.871 µM. For `CC(=O)c1ccccc1OC[C@H](O)CN(C(C)C)C(C)C`, the EC50 was 10 µM. Against the preceding compound, the EC50 is about 11-fold higher. Consider `O[C@@H](COc1ccccc1[C@@H](O)CCc1ccccc1)CN1CCN(Cc2ccccc2)CC1`, for which the EC50 is 0.186 µM. For the compound `CO[C@@H](CCc1ccccc1)c1ccccc1OC[C@H](O)CN1CCN(Cc2ccccc2)CC1`, the response was half-maximal at 0.0794 µM (EC50). Consider `Cc1ccccc1N1CCN(C[C@@H](O)COc2ccccc2[C@@H](O)CCc2ccccc2)CC1`, for which the EC50 was 0.0447 µM. With `CO[C@@H](CCc1ccccc1)c1ccccc1OC[C@H](O)CN1CCN(c2ccccc2C)CC1` the figure was 0.0363 µM; with `Cc1cccc(N2CCN(C[C@@H](O)COc3ccccc3[C@@H](O)CCc3ccccc3)CC2)c1C`, 0.0832 µM; with `CCC(=O)c1ccccc1OC[C@H](O)CN1CCN(c2ccc(F)cc2)CC1`, 0.832 µM. `CCC(=O)c1ccccc1OC[C@H](O)CN(C(C)C)C(C)C`: the EC50 was 4.27 µM. The compound `CCC(=O)c1ccccc1OC[C@H](O)CN1CCN(Cc2ccccc2)CC1` showed an EC50 of 1.45 µM. `CCC(=O)c1ccccc1OC[C@H](O)CNCCC(c1ccccc1)c1ccccc1` had an EC50 of 0.12 µM. In the case of `CC(=O)c1cc(C)ccc1OC[C@H](O)CN1CCOCC1` it was 12.6 µM.
